From PMC6713088, “Synthesis and biological evaluation of novel 3-(quinolin-4-ylamino)benzenesulfonamides as carbonic anhydrase isoforms I and II inhibitors” (Journal of Enzyme Inhibition and Medicinal Chemistry, 2019)
Read-outs that look alike come from different tables or passages of the source.

Assays:
[1] = molecular target: T1, hCA II (Homo sapiens, UniProt P00918); assay: stopped-flow CO2 hydration assay; format: biochemical
T1 construct: gene CA2; cytosolic isoform
Text: (§1) stopped-flow CO2 hydration assay on hCA II

[2] = molecular target: T2, hCA I (Homo sapiens, UniProt P00915); assay: stopped-flow CO2 hydration assay; format: biochemical
T2 construct: gene CA1; cytosolic isoform
T2 sequence (P00915 2-261): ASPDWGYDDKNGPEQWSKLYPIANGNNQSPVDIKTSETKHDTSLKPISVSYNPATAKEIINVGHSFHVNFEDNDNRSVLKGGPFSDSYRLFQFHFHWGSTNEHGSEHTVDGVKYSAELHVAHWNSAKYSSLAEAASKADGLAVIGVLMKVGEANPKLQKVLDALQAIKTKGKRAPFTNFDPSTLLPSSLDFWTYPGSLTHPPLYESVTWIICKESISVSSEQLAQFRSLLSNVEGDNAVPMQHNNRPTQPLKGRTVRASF
Text: stopped-flow CO2 hydration assay on hCA I

[3] = stopped-flow CO2 hydration assay; format: biochemical, Homo sapiens; details: read-out: KI (nM) ^* / hCA I
Text: as §1

Structure (SMILES)	Ki [1] [nM]	Ki [2] [nM]	Ki ([1]; CO2 […], […] Hepes pH […] Na2SO4, […] min preincubation at room temperature) [nM]	Ki [3] [nM]
CCOC(=O)c1cnc2ccc(OC)cc2c1Nc1cccc(S(N)(=O)=O)c1 [6c, Ethyl 6-methoxy-4-((3-sulphamoylphenyl)amino)quinoline-3-carboxylate]	175	966	–	–
CCOC(=O)c1cnc2cc(Cl)c(F)cc2c1Nc1cccc(S(N)(=O)=O)c1 [6e, Ethyl 7-chloro-6-fluoro-4-((3-sulphamoylphenyl)amino)quinoline-3-carboxylate]	–	7600	83.3	–
CCOC(=O)c1cnc2cc(Cl)cc(Cl)c2c1Nc1cccc(S(N)(=O)=O)c1 [6f, Ethyl 5,7-dichloro-4-((3-sulphamoylphenyl)amino)quinoline-3-carboxylate]	–	> 10000	–	> 10000
CCOC(=O)c1cnc2cc(Cl)c(F)cc2c1Nc1cccc(S(=O)(=O)NC)c1 [compound 11, Ethyl 7-chloro-6-fluoro-4-((3-(N-methylsulphamoyl)phenyl)amino)quinoline-3-carboxylate]	–	> 10000	–	> 10000

Now from value to compound:

Ki [1] [nM]	Ki [2] [nM]	Ki ([1]; CO2 […], […] Hepes pH […] Na2SO4, […] min preincubation at room temperature) [nM]	Ki [3] [nM]	Structure (SMILES)
223	4230	–	–	CCOC(=O)c1cnc2ccccc2c1Nc1cccc(S(N)(=O)=O)c1 [6a, Ethyl 4-((3-sulphamoylphenyl)amino)quinoline-3-carboxylate]
782	6640	–	–	CCOC(=O)c1cnc2ccc(C)cc2c1Nc1cccc(S(N)(=O)=O)c1 [6b, Ethyl 6-methyl-4-((3-sulphamoylphenyl)amino)quinoline-3-carboxylate]
3590	9090	–	–	CCOC(=O)c1cnc2ccc(Br)cc2c1Nc1cccc(S(N)(=O)=O)c1 [6d, Ethyl 6-bromo-4-((3-sulphamoylphenyl)amino)quinoline-3-carboxylate]
